# Source: patent US11324768B2, “Applications of triacetyl-3-hydroxyl phenyl adenosine in treating vascular inflammations or improving vascular endothelium functions” (priority 2016, dated 2022)
# Experiments:
# Format in all cases: in vivo
# C57BL/6J mice = experiment: TNF-α-induced acute vascular inflammation in mice (leukocyte movement rate and leukocyte-endothelial cell adhesion in mesenteric venules); settings: 7 days, 4 h after TNF-α
# Experimental: 60 C57BL/6J mice were randomly divided into 6 groups according to body weight: normal control group, model control group, IMM-H007 group, positive control AMPK agonist group metformin, A769662 group, and atorvastatin group, respectively, and were intragastrically administered with physiological saline, IMM-H007 (100 mg/kg), metformin (260 mg/kg), and atorvastatin (lipitor, 10 mg/kg), respectively, and injected intraperitoneally with A769662 (30 mg/kg, which is difficult to absorb by oral administration) for 7 consecutive days. On the 8th day, except that the blank control group was intraperitoneally injected with normal saline, other groups were all intraperitoneally injected with TNF-α (0.3 μg/dose) to induce acute inflammations in the blood vessels. Four hours after the injection of TNF-α, the optic nerve vascular plexus was intravenously injected with 0.05% Rhodamine-6G, and leukocytes were fluorescently labeled with 100 μl. The mice were anesthetized with pentobarbital sodium. The right side of the mice was fixed on a observation table. A small mouth was cut along the abdominal cavity. The mesenteric vascular bed was gently pulled out. The small intestine of the mice was fixed in a observation window. The microscope is turned on to find a clear third-order mesenteric vein under a low power microscope, and then adjusted to 20-fold magnification for observation, after adjusting the brightness and focal length to the optimum, the white light was turned off, the fluorescence was turned on, and a 1 min leukocyte movement video was collected from each vessel segment using the ToumView software of the Dynamic Visual Microvascular Research System (Gene&I-SMC1). The leukocyte movement rate and leukocyte-endothelial cell adhesion number reflect intravascular inflammations and are early signs of endothelial dysfunction.
# The leukocyte movement rate was analyzed with image pro 6.0. At least three observation points were selected for each observation field, and at least 9 observation sites were finally counted for each mouse. The mean value was calculated to obtain the average leukocyte movement rate.
# ApoE−/− mice [1] = experiment: Intravascular inflammatory response in high-fat-fed ApoE−/− mice (chronic inflammation model); settings: 8 weeks, high-fat diet
# Experimental: After 1 week of adaptive feeding, the animals were randomly divided into 4 groups according to body weight: model control group, A769662 (30 mg/kg, ip), metformin (260 mg/kg), IMM-H007 (100 mg/kg) administration groups, 7 in each group, and were given a high-fat diet (78.6% basal diet, 10% lard, 1.00%/cholesterol, 10% egg yolk powder, and 0.4% bile salt), and simultaneously administered intragastrically at a dose of 0.1 ml/10 g body weight, and were continuously administered and fed for 8 weeks. The mice were anesthetized with pentobarbital sodium (60 mg/kg body weight). The right side of the mice was fixed on a observation table. A small mouth was cut along the abdominal cavity. The mesenteric vascular bed was gently pulled out. The small intestine of the mice was fixed in an observation window, the microscope is turned on to find a clear third-order mesenteric vein under a low power microscope, and then adjusted to 20-fold magnification for observation, after adjusting the brightness and focal length to the optimum, the white light was turned off, the fluorescence was turned on, and the leukocyte movement in the blood vessel could be observed. A 1 min leukocyte movement video was collected from each vessel segment using the ToumView software of the Dynamic Visual Microvascular Research System (Gene&I-SMC1). Leukocyte movement rate and number of leukocyte-endothelial cells adhesion were analyzed using image pro 6.0.
# (1) Leukocyte Movement Rate and (2) Number of Leukocyte-Endothelial Cell Adhesion
# VCAM-1 = experiment: Serum inflammatory factor VCAM-1 in ApoE−/− mice (ELISA)
# TNF-α = experiment: Serum inflammatory factor TNF-α in ApoE−/− mice (ELISA); set-up: unit not given here
# Experimental: After 1 week of adaptive feeding, the animals were randomly divided into 7 groups according to body weight: normal control group, model control group A769662 (30 mg/kg) administration group, metformin (260 mg/kg) administration group, IMM-H007 low, medium, and high administration groups (50, 100, 200 mg/kg), 8 in each group, and were given a high-fat diet (78.6% basal diet, 10% lard, 1.0% cholesterol, 10% egg yolk powder, and 0.4% bile salt), […] body weight, and were continuously administered and fed for 8 weeks to establish an atherosclerosis model.
# (2) Effect of IMM-H007 on Serum Inflammatory Factors TNF-α and VCAM-1 in ApoE−/− Mice
# Operated according to kit instructions
# ApoE−/− mice [2] = experiment: Plaque area in ApoE−/− mice (oil red O staining of aorta and aortic root); settings: for plaque area, Overall length of aorta: in % (unit assumed)
# Experimental: After 1 week of adaptive feeding, the animals were randomly divided into 7 groups according to body weight: normal control group, model control group A769662 (30 mg/kg) administration group, metformin (260 mg/kg) administration group, IMM-H007 low, medium, and high administration groups (50, 100, 200 mg/kg), 8 in each group, and were given a high-fat diet (78.6% basal diet, 10% lard, 1.0% cholesterol, 10% egg yolk powder, and 0.4% bile salt), and simultaneously administered intragastrically at a dose of 0.1 ml/10 g body weight, […] model.
# The aortic root was stained with oil red O and the overall length of the aorta was stained with oil red O. The pathological images were analyzed by Photoshop, Image 1, and Image-Pro Plus softwares. The pathological grading data were statistically analyzed using Chi-square test.
compound,measurement,setting,value
N#Cc1c(O)c2c(-c3ccc(-c4ccccc4O)cc3)csc2[nH]c1=O [A769662],Leukocyte movement rate,"C57BL/6J mice; 30 mg/kg, ip",24.9 ± 3.8 µm/s
same,Number of leukocyte adhesion,"C57BL/6J mice; 30 mg/kg, ip",3.5 ± 1.8 number/200 micron
same,Leukocyte movement rate,"ApoE−/− mice [1]; 30 mg/kg, ip",28.7 ± 7 µm/s
same,Number of leukocyte adhesion,"ApoE−/− mice [1]; 30 mg/kg, ip",13.7 ± 4.9 number/200 micron
same,serum VCAM-1,"VCAM-1; 30 mg/kg, ip",233.1 ± 18.3
same,serum TNF-α,"TNF-α; 30 mg/kg, ip",247.3 ± 49.7
same,"plaque area, Frozen section of root of aorta %","ApoE−/− mice [2]; 30 mg/kg, ip",3.02 ± 0.89 %
same,"plaque area, Overall length of aorta","ApoE−/− mice [2]; 30 mg/kg, ip",2.61 ± 1.80
"CC(C)c1c(C(=O)Nc2ccccc2)c(-c2ccccc2)c(-c2ccc(F)cc2)n1CC[C@@H](O)C[C@@H](O)CC(=O)O [Atorvastatin, atorvastatin]",Leukocyte movement rate,C57BL/6J mice; 10 mg/kg intragastric,20.6 µm/s
same,Number of leukocyte adhesion,C57BL/6J mice; 10 mg/kg intragastric,5.3 number/200 µm
"CN(C)C(=N)N=C(N)N [Metformin, metformin]",Leukocyte movement rate,C57BL/6J mice; 260 mg/kg intragastric,21.5 µm/s
same,Number of leukocyte adhesion,C57BL/6J mice; 260 mg/kg intragastric,5.1 ± 2.2 number/200 micron
same,Leukocyte movement rate,ApoE−/− mice [1]; 260 mg/kg,21.4 µm/s
same,Number of leukocyte adhesion,ApoE−/− mice [1]; 260 mg/kg,16.3 ± 6.8 number/200 micron
same,serum VCAM-1,VCAM-1; 260 mg/kg,234.9 ± 16.7
same,serum TNF-α,TNF-α; 260 mg/kg,229.1 ± 35.2
same,"plaque area, Frozen section of root of aorta %",ApoE−/− mice [2]; 260 mg/kg,3.73 ± 1.15 %
same,"plaque area, Overall length of aorta",ApoE−/− mice [2]; 260 mg/kg,3.13 ± 1.76
